For test [1], the system named is Fusarium oxysporum. In words: Antifungal activity against Fusarium oxysporum by measuring zone of inhibition at 100 ug/ml after 48 hrs. The settings on record: read-out: IZ. Format: functional.
The test system of test [2] is Staphylococcus aureus. As to the kind of experiment: Antibacterial activity against Staphylococcus aureus by measuring zone of inhibition at 100 ug/ml after 24 hrs. Format: functional. Conditions: read-out: IZ.
The test system of test [3] is Pseudomonas aeruginosa. As to the kind of experiment: Antibacterial activity against Pseudomonas aeruginos by measuring zone of inhibition at 100 ug/ml after 24 hrs. Format: functional. Conditions: read-out: IZ.
Test [4] concerns Bacillus subtilis. As to the kind of experiment: Antibacterial activity against Bacillus subtilis by measuring zone of inhibition at 100 ug/ml after 24 hrs. Format: functional. Conditions: read-out: IZ.
Test [5] deals with Aspergillus flavus. In words: Antifungal activity against Aspergillus flavus by measuring zone of inhibition at 100 ug/ml after 48 hrs. Format: functional. The settings on record: read-out: IZ.
Test [6] deals with Escherichia coli. In words: Antibacterial activity against Escherichia coli by measuring zone of inhibition at 100 ug/ml after 24 hrs. Format: functional. The settings on record: read-out: IZ.
The test system of test [7] is Aspergillus flavus. As to the kind of experiment: Antifungal activity against Aspergillus flavus by measuring zone of inhibition at 30 ug after 48 hrs. Format: functional, organism-based.
For test [8], the system named is Fusarium oxysporum. In words: Antifungal activity against Fusarium oxysporum by measuring zone of inhibition at 30 ug after 48 hrs. Format: functional, organism-based.
Test [9] concerns Staphylococcus aureus. In words: Antibacterial activity against Staphylococcus aureus by measuring zone of inhibition at 30 ug after 24 hrs. Format: functional. Conditions: read-out: IZ.
The test system of test [10] is Pseudomonas aeruginosa. As to the kind of experiment: Antibacterial activity against Pseudomonase aeruginosa by measuring zone of inhibition at 30 ug after 24 hrs. Format: functional. Conditions: read-out: IZ.
The subject of test [11] is Bacillus subtilis. In words: Antibacterial activity against Bacillus subtilis by measuring zone of inhibition at 30 ug after 24 hrs. The settings on record: read-out: IZ. Format: functional.
The test system of test [12] is Escherichia coli. In words: Antibacterial activity against Escherichia coli by measuring zone of inhibition at 30 ug after 24 hrs. Format: functional. The settings on record: read-out: IZ.

`Cc1cc2c(cc1C)Nc1c(c(=O)oc3ccc(Cl)cc13)N2`: the zone of inhibition at 100 µg/mL in the test on Fusarium oxysporum [1] stood at 4 mm; in the test with Staphylococcus aureus [2], 7 mm; with Pseudomonas aeruginosa [3], 9 mm; in the test with Bacillus subtilis [4] it was 5 mm; in the test with Aspergillus flavus [5], 3 mm; in the test with Escherichia coli [6] it was 8 mm.
With `Cc1cc2c(cc1C)Nc1c(c(=O)oc3ccc(Br)cc13)N2`, the zone of inhibition at 100 µg/mL with Fusarium oxysporum [1] is 5 mm; with Staphylococcus aureus [2], 9 mm; in the test on Pseudomonas aeruginosa [3] it was 7 mm; in the test with Bacillus subtilis [4], 7 mm; with Aspergillus flavus [5] it was 4 mm; with Escherichia coli [6], 6 mm.
On to `O=c1oc2ccc(Cl)cc2c2c1Nc1ccccc1N2`, for which the zone of inhibition at 100 µg/mL in the test on Fusarium oxysporum [1] turned out to be 4 mm; with Staphylococcus aureus [2] it was 6 mm; with Pseudomonas aeruginosa [3] it was 5 mm; in the test on Bacillus subtilis [4] it was 3 mm; with Aspergillus flavus [5], 3 mm; with Escherichia coli [6] it was 4 mm.
With `O=c1oc2ccc([N+](=O)[O-])cc2c2c1Nc1ccccc1N2`, the zone of inhibition at 100 µg/mL in the test with Fusarium oxysporum [1] is 3 mm; with Staphylococcus aureus [2], 5 mm; in the test with Pseudomonas aeruginosa [3], 4 mm; in the test on Bacillus subtilis [4], 4 mm; in the test with Aspergillus flavus [5], 4 mm; with Escherichia coli [6] it was 4 mm.
As to NYSTATIN, the results for the inhibition zone (IZ) in the test on Aspergillus flavus [7] and with Fusarium oxysporum [8] were 9 mm and 8 mm, respectively.
As for `CN[C@@H]1[C@H](O[C@H]2[C@H](O[C@H]3[C@H](O)[C@@H](O)[C@H](N=C(N)N)[C@@H](O)[C@@H]3N=C(N)N)O[C@@H](C)[C@]2(O)C=O)O[C@@H](CO)[C@H](O)[C@H]1O` [STREPTOMYCIN], the zone of inhibition at 30 µg/disc with Staphylococcus aureus [9] came out at 12 mm; in the test on Pseudomonas aeruginosa [10], 10 mm; in the test on Bacillus subtilis [11] it was 10 mm; in the test on Escherichia coli [12], 11 mm.
As for `O=c1oc2ccccc2c2c1Nc1ccccc1N2`, the zone of inhibition at 100 µg/mL with Fusarium oxysporum [1] was 3 mm; with Staphylococcus aureus [2], 2 mm; with Pseudomonas aeruginosa [3] it was 3 mm; in the test with Bacillus subtilis [4], 1 mm; with Aspergillus flavus [5] it was 2 mm; in the test with Escherichia coli [6], 2 mm.
On to `Cc1cc2c(cc1C)Nc1c(c(=O)oc3ccccc13)N2`, for which the zone of inhibition at 100 µg/mL in the test with Fusarium oxysporum [1] is 3 mm; with Staphylococcus aureus [2], 4 mm; in the test with Pseudomonas aeruginosa [3] it was 4 mm; in the test with Bacillus subtilis [4], 2 mm; with Aspergillus flavus [5] it was 2 mm; in the test on Escherichia coli [6], 3 mm.
Consider `Cc1ccc2oc(=O)c3c(c2c1)Nc1cc(C)c(C)cc1N3`, for which the zone of inhibition at 100 µg/mL with Fusarium oxysporum [1] is 4 mm; with Staphylococcus aureus [2] it was 5 mm; in the test on Pseudomonas aeruginosa [3], 5 mm; with Bacillus subtilis [4] it was 3 mm; in the test with Aspergillus flavus [5] it was 2 mm; in the test on Escherichia coli [6], 4 mm.
Turning to `COc1ccc2oc(=O)c3c(c2c1)Nc1ccccc1N3`, the zone of inhibition at 100 µg/mL stood at 6 mm in the test with Fusarium oxysporum [1]; 8 mm in the test with Staphylococcus aureus [2]; 7 mm with Pseudomonas aeruginosa [3]; 5 mm in the test on Bacillus subtilis [4]; 5 mm in the test on Aspergillus flavus [5]; 6 mm in the test with Escherichia coli [6].
For `Cc1cc2c(cc1C)Nc1c(c(=O)oc3ccc([N+](=O)[O-])cc13)N2`, the zone of inhibition at 100 µg/mL in the test with Fusarium oxysporum [1] is 4 mm; with Staphylococcus aureus [2], 5 mm; in the test with Pseudomonas aeruginosa [3], 5 mm; with Bacillus subtilis [4], 4 mm; in the test on Aspergillus flavus [5] it was 4 mm; in the test on Escherichia coli [6] it was 4 mm.
For the compound `O=c1oc2ccc(F)cc2c2c1Nc1ccccc1N2`, the zone of inhibition at 100 µg/mL stood at 3 mm in the test on Fusarium oxysporum [1]; 5 mm with Staphylococcus aureus [2]; 4 mm in the test on Pseudomonas aeruginosa [3]; 3 mm with Bacillus subtilis [4]; 2 mm in the test on Aspergillus flavus [5]; 3 mm in the test on Escherichia coli [6].
As for `Cc1ccc2oc(=O)c3c(c2c1)Nc1ccccc1N3`, the zone of inhibition at 100 µg/mL with Fusarium oxysporum [1] amounted to 2 mm; in the test on Staphylococcus aureus [2], 3 mm; in the test on Pseudomonas aeruginosa [3] it was 4 mm; in the test on Bacillus subtilis [4], 2 mm; in the test with Aspergillus flavus [5], 2 mm; in the test with Escherichia coli [6] it was 3 mm.
For `COc1ccc2oc(=O)c3c(c2c1)Nc1cc(C)c(C)cc1N3`, the zone of inhibition at 100 µg/mL in the test with Fusarium oxysporum [1] turned out to be 8 mm; in the test on Staphylococcus aureus [2], 11 mm; in the test on Pseudomonas aeruginosa [3], 10 mm; in the test on Bacillus subtilis [4], 9 mm; in the test with Aspergillus flavus [5], 6 mm; with Escherichia coli [6], 9 mm.
`Cc1cc2c(cc1C)Nc1c(c(=O)oc3ccc(F)cc13)N2`: the zone of inhibition at 100 µg/mL with Fusarium oxysporum [1] amounted to 4 mm; in the test on Staphylococcus aureus [2], 6 mm; in the test on Pseudomonas aeruginosa [3] it was 8 mm; in the test on Bacillus subtilis [4], 5 mm; in the test with Aspergillus flavus [5] it was 3 mm; in the test on Escherichia coli [6] it was 7 mm.
Consider `O=c1oc2ccc(Br)cc2c2c1Nc1ccccc1N2`, for which the zone of inhibition at 100 µg/mL in the test with Fusarium oxysporum [1] amounted to 5 mm; in the test on Staphylococcus aureus [2] it was 8 mm; in the test with Pseudomonas aeruginosa [3], 6 mm; in the test on Bacillus subtilis [4] it was 4 mm; with Aspergillus flavus [5] it was 4 mm; in the test with Escherichia coli [6], 5 mm.

(Values after ChEMBL document CHEMBL1146174, “Synthesis of antimicrobial 2,9,10-trisubstituted-6-oxo-7,12-dihydro-chromeno[3,4-b]quinoxalines” (2006).)
